# Data published in ChEMBL document CHEMBL3885861, “Open TG-GATES”.
# Species on record: Rattus norvegicus
# Assay: Open TG-GATES - Regimen: Daily Repeat
# Assay type: toxicity, organism-based, Sprague-Dawley
# Parameters: regimen Daily Repeat, gender Male, age 6 weeks
# Settings: in vivo, po, 30 mg/kg, route gavage, dose level Low; for APTT / Bas / Eos / Fbg / Hb / Ht / Lym / MCH / MCHC / MCV / Mono / Neu / PT / Plat / RBC / Ret / WBC: tissue Blood; for KIDNEY_L / KIDNEY_R / KIDNEY_TOTAL: tissue Kidney; for LIVER: tissue Liver; for A/G / ALP / ALT / AST / BUN / CRE / Ca / Cl / DBIL / GLC / IP / K / LDH / Na / PL / RALB / TBIL / TC / TG / TP / gamma-GTP: tissue Plasma
smiles,measurement,setting,value
Cc1cccc(Nc2ccccc2C(=O)O)c1C [MEFENAMIC ACID],TERMINAL_BW,"72 h, time 3 day",232.8 g
same,APTT,"72 h, time 3 day",19.8 s
same,Bas,"72 h, time 3 day",0%
same,Eos,"72 h, time 3 day",1%
same,Fbg,"72 h, time 3 day",221.8 mg/dL
same,Hb,"72 h, time 3 day",13.4 g/dL
same,Ht,"72 h, time 3 day",38.3%
same,Lym,"72 h, time 3 day",79.6%
same,MCH,"72 h, time 3 day",21.4 pg
same,MCHC,"72 h, time 3 day",35%
same,MCV,"72 h, time 3 day",61.1 fL
same,Mono,"72 h, time 3 day",2.4%
same,Neu,"72 h, time 3 day",15.4%
same,PT,"72 h, time 3 day",11.9 s
same,Plat,"72 h, time 3 day",117.6 x10_4/uL
same,RBC,"72 h, time 3 day",627.4 x10_4/ul
same,Ret,"72 h, time 3 day",5.6%
same,WBC,"72 h, time 3 day",94.5 x10_2/uL
same,KIDNEY_L,"72 h, time 3 day",1 g
same,KIDNEY_R,"72 h, time 3 day",1 g
same,KIDNEY_TOTAL,"72 h, time 3 day",2 g
same,LIVER,"72 h, time 3 day",10.6 g
same,A/G,"72 h, time 3 day",1.6
same,ALP,"72 h, time 3 day",1154.4 IU/L
same,ALT,"72 h, time 3 day",36.2 IU/L
same,AST,"72 h, time 3 day",66.2 IU/L
same,BUN,"72 h, time 3 day",14.6 mg/dL
same,CRE,"72 h, time 3 day",0.4 mg/dL
same,Ca,"72 h, time 3 day",10.8 mg/dL
same,Cl,"72 h, time 3 day",102 meq/L
same,DBIL,"72 h, time 3 day",0.09 mg/dL
same,GLC,"72 h, time 3 day",190.6 mg/dL
same,IP,"72 h, time 3 day",7.8 mg/dL
same,K,"72 h, time 3 day",4.2 meq/L
same,LDH,"72 h, time 3 day",171.8 IU/L
same,Na,"72 h, time 3 day",140 meq/L
same,PL,"72 h, time 3 day",164.6 mg/dL
same,RALB,"72 h, time 3 day",3.5 g/dL
same,TBIL,"72 h, time 3 day",0.2 mg/dL
same,TC,"72 h, time 3 day",91 mg/dL
same,TG,"72 h, time 3 day",94.4 mg/dL
same,TP,"72 h, time 3 day",5.6 g/dL
same,gamma-GTP,"72 h, time 3 day",0.8 IU/L
same,TERMINAL_BW,"[…], time 7 day",268.5 g
same,TERMINAL_BW,"[…], time 14 day",312.8 g
same,TERMINAL_BW,"[…], time 28 day",397.4 g
same,APTT,"[…], time 7 day",19.2 s
same,Bas,"[…], time 7 day",0%
same,Eos,"[…], time 7 day",1.4%
same,Fbg,"[…], time 7 day",237 mg/dL
same,Hb,"[…], time 7 day",14 g/dL
same,Ht,"[…], time 7 day",39%
same,Lym,"[…], time 7 day",80.4%
same,MCH,"[…], time 7 day",22.2 pg
same,MCHC,"[…], time 7 day",35.8%
same,MCV,"[…], time 7 day",61.9 fL
same,Mono,"[…], time 7 day",2%
same,Neu,"[…], time 7 day",15%
same,PT,"[…], time 7 day",11.8 s
same,Plat,"[…], time 7 day",125.5 x10_4/uL
same,RBC,"[…], time 7 day",629.6 x10_4/ul
same,Ret,"[…], time 7 day",5.4%
same,WBC,"[…], time 7 day",98.6 x10_2/uL
same,APTT,"[…], time 14 day",19.6 s
same,Bas,"[…], time 14 day",0%
same,Eos,"[…], time 14 day",1%
same,Fbg,"[…], time 14 day",224.2 mg/dL
same,Hb,"[…], time 14 day",14.5 g/dL
same,Ht,"[…], time 14 day",40.6%
same,Lym,"[…], time 14 day",80%
same,MCH,"[…], time 14 day",21.5 pg
same,MCHC,"[…], time 14 day",35.7%
same,MCV,"[…], time 14 day",60.3 fL
same,Mono,"[…], time 14 day",2.4%
same,Neu,"[…], time 14 day",15.4%
same,PT,"[…], time 14 day",12.1 s
same,Plat,"[…], time 14 day",117 x10_4/uL
same,RBC,"[…], time 14 day",673.6 x10_4/ul
same,Ret,"[…], time 14 day",4%
same,WBC,"[…], time 14 day",93.1 x10_2/uL
same,APTT,"[…], time 28 day",18.7 s
same,Bas,"[…], time 28 day",0%
same,Eos,"[…], time 28 day",1.2%
same,Fbg,"[…], time 28 day",248.6 mg/dL
same,Hb,"[…], time 28 day",15.6 g/dL
same,Ht,"[…], time 28 day",43.9%
same,Lym,"[…], time 28 day",81.8%
same,MCH,"[…], time 28 day",20.4 pg
same,MCHC,"[…], time 28 day",35.5%
same,MCV,"[…], time 28 day",57.5 fL
same,Mono,"[…], time 28 day",2.2%
same,Neu,"[…], time 28 day",13%
same,PT,"[…], time 28 day",12.1 s
same,Plat,"[…], time 28 day",107.9 x10_4/uL
same,RBC,"[…], time 28 day",764.2 x10_4/ul
same,Ret,"[…], time 28 day",2.5%
same,WBC,"[…], time 28 day",93.1 x10_2/uL
same,KIDNEY_L,"[…], time 7 day",1.1 g
same,KIDNEY_R,"[…], time 7 day",1.1 g
same,KIDNEY_TOTAL,"[…], time 7 day",2.2 g
same,KIDNEY_L,"[…], time 14 day",1.2 g
same,KIDNEY_R,"[…], time 14 day",1.2 g
same,KIDNEY_TOTAL,"[…], time 14 day",2.4 g
same,KIDNEY_L,"[…], time 28 day",1.4 g
same,KIDNEY_R,"[…], time 28 day",1.4 g
same,KIDNEY_TOTAL,"[…], time 28 day",2.8 g
same,LIVER,"[…], time 7 day",12.3 g
same,LIVER,"[…], time 14 day",13.7 g
same,LIVER,"[…], time 28 day",16.1 g
same,A/G,"[…], time 7 day",1.6
same,ALP,"[…], time 7 day",1054 IU/L
same,ALT,"[…], time 7 day",38.2 IU/L
same,AST,"[…], time 7 day",69.8 IU/L
same,BUN,"[…], time 7 day",15 mg/dL
same,CRE,"[…], time 7 day",0.4 mg/dL
same,Ca,"[…], time 7 day",10.6 mg/dL
same,Cl,"[…], time 7 day",102.8 meq/L
same,DBIL,"[…], time 7 day",0.098 mg/dL
same,GLC,"[…], time 7 day",222.6 mg/dL
same,IP,"[…], time 7 day",7.2 mg/dL
same,K,"[…], time 7 day",3.7 meq/L
same,LDH,"[…], time 7 day",204.4 IU/L
same,Na,"[…], time 7 day",140.2 meq/L
same,PL,"[…], time 7 day",152.4 mg/dL
same,RALB,"[…], time 7 day",3.5 g/dL
same,TBIL,"[…], time 7 day",0.2 mg/dL
same,TC,"[…], time 7 day",75.8 mg/dL
same,TG,"[…], time 7 day",114.2 mg/dL
same,TP,"[…], time 7 day",5.7 g/dL
same,gamma-GTP,"[…], time 7 day",0.8 IU/L
same,A/G,"[…], time 14 day",1.4
same,ALP,"[…], time 14 day",881.8 IU/L
same,ALT,"[…], time 14 day",33.4 IU/L
same,AST,"[…], time 14 day",57.8 IU/L
same,BUN,"[…], time 14 day",16 mg/dL
same,CRE,"[…], time 14 day",0.4 mg/dL
same,Ca,"[…], time 14 day",10.6 mg/dL
same,Cl,"[…], time 14 day",103.4 meq/L
same,DBIL,"[…], time 14 day",0.098 mg/dL
same,GLC,"[…], time 14 day",205.2 mg/dL
same,IP,"[…], time 14 day",7.1 mg/dL
same,K,"[…], time 14 day",3.9 meq/L
same,LDH,"[…], time 14 day",152.4 IU/L
same,Na,"[…], time 14 day",140.8 meq/L
same,PL,"[…], time 14 day",151.4 mg/dL
same,RALB,"[…], time 14 day",3.3 g/dL
same,TBIL,"[…], time 14 day",0.2 mg/dL
same,TC,"[…], time 14 day",74.4 mg/dL
same,TG,"[…], time 14 day",125 mg/dL
same,TP,"[…], time 14 day",5.7 g/dL
same,gamma-GTP,"[…], time 14 day",1 IU/L
same,A/G,"[…], time 28 day",1.4
same,ALP,"[…], time 28 day",696 IU/L
same,ALT,"[…], time 28 day",32.8 IU/L
same,AST,"[…], time 28 day",57.8 IU/L
same,BUN,"[…], time 28 day",17.8 mg/dL
same,CRE,"[…], time 28 day",0.5 mg/dL
same,Ca,"[…], time 28 day",10.5 mg/dL
same,Cl,"[…], time 28 day",103.8 meq/L
same,DBIL,"[…], time 28 day",0.082 mg/dL
same,GLC,"[…], time 28 day",227 mg/dL
same,IP,"[…], time 28 day",6.6 mg/dL
same,K,"[…], time 28 day",3.5 meq/L
same,LDH,"[…], time 28 day",103.4 IU/L
same,Na,"[…], time 28 day",141.2 meq/L
same,PL,"[…], time 28 day",146.2 mg/dL
same,RALB,"[…], time 28 day",3.5 g/dL
same,TBIL,"[…], time 28 day",0.1 mg/dL
same,TC,"[…], time 28 day",78.2 mg/dL
same,TG,"[…], time 28 day",97 mg/dL
same,TP,"[…], time 28 day",6.1 g/dL
same,gamma-GTP,"[…], time 28 day",1.2 IU/L
